Data from patent US10696675B2, “Imidazopyridopyrimidine derivative compound and use thereof” (HANMI PHARMACEUTICAL CO., LTD., priority 2016, dated 2020).

tested on: HUH7 cells; experiment: Proliferation inhibitory effect for HUH7 cells (SRB assay); assay type: cell-based; details: Homo sapiens, Huh-7, 72 hours, GI50, read-out: IC50 HUH7 Cell Line
Experimental: Test Example 2: Measuring Inhibitory Effect of FGFR Inhibitor Using Cell Line
The test was carried out for identifying a proliferation inhibitory effect of the compound of the present invention for HUH7 cells. HUH7 cell lines were counted and 5.0×10^3 cells were inoculated per well in a 96 well plate. After the innoculation, the cells were cultured for 24 hours in a 37 □ and 5% carbon dioxide (CO2) incubator. On the next day, the synthesized compounds were each diluted and prepared. The diluted compounds were introduced to the cell lines inoculated the previous day by concentrations, and reacted for 72 hours in a 37 □ and 5% carbon dioxide (CO2) incubator. However, to a positive control to which the compound was not added, 0.1% dimethyl sulfoxide (DMSO) diluted with a medium was introduced. To a negative control plate, a trichloroacetic acid (TCA) solution was introduced, and fixed at 4 □. After reacting for 72 hours, the medium including the compound was removed, a TCA solution was added thereto, and the cells were fixed for 30 minutes to 60 minutes at 4 □. The TCA solution was discarded, the plate was washed off with distilled water and then dried in the air. A 0.4% sulforhodamin B (SRB) solution was added to the plate and dyed for 10 minutes at room temperature. The plate was washed off with tap water including a 1% acetic acid solution, and then dried in the air. A 10 mM Trizma base solution was added to dissolve the solid SRB. Using a microplate reader, optical density (O.D. value) was measured at 540 nm. A GI50 value of each of the compounds was calculated using GraphPad Prism V6.0 Software.

| Compound | IC50 |
| --- | --- |
| C=CC(=O)N[C@H]1CCOC[C@H]1Nc1ncc2cc(-c3c(Cl)c(OC)cc(OC)c3Cl)c3nccn3c2n1 [Synthesis Example 4, N-((3S,4S)-3-((6-(2,6-dichloro-3,5-dimethoxyphenyl)imidazo[1′,2′:1,6]pyrido[2,3-d]pyrimidin-2-yl)amino)tetrahydro-2H-pyran-4-yl)acrylamide] | 50 to 500 nM |
| C=CC(=O)Nc1cc(F)cc(F)c1Nc1ncc2cc(-c3c(F)c(OC)cc(OC)c3F)c3nccn3c2n1 [compound 76] | 50 to 500 nM |
| COc1cc(OC)c(Cl)c(-c2cc3cnc(Nc4ccc(N5CCOCC5)cc4NC(=O)/C=C/CN(C)C)nc3n3ccnc23)c1Cl [compound 34] | 50 to 500 nM |
| C=CC(=O)Nc1cc(F)ccc1Nc1ncc2cc(-c3c(Cl)c(OC)cc(OC)c3Cl)c3nccn3c2n1 [compound 14] | 50 to 500 nM |
| C=CC(=O)NC1CCCC1Nc1ncc2cc(-c3c(Cl)c(OC)cc(OC)c3Cl)c3nccn3c2n1 (centres unmarked) [Synthesis Example 1, N-(2-((6-(2,6-dichloro-3,5-dimethoxyphenyl)imidazo[1′,2′:1,6]pyrido[2,3-d]pyrimidin-2-yl)amino)cyclopentyl)acrylamide] | 50 to 500 nM |
| C=CC(=O)Nc1cccc(Nc2ncc3cc(-c4c(F)c(OC)cc(OC)c4F)c4nccn4c3n2)c1 [compound 74] | < 50 nM |
| C=CC(=O)Nc1cc(OCC)ccc1Nc1ncc2cc(-c3c(Cl)c(OC)cc(OC)c3Cl)c3nccn3c2n1 [compound 27] | < 50 nM |
| C=CC(=O)Nc1cc(N(C)C)ccc1Nc1ncc2cc(-c3c(Cl)c(OC)cc(OC)c3Cl)c3nccn3c2n1 [compound 24] | < 50 nM |
| C=CC(=O)Nc1ccc(F)c(F)c1Nc1ncc2cc(-c3c(F)c(OC)cc(OC)c3F)c3nccn3c2n1 [compound 78] | 50 to 500 nM |
| COc1cc(OC)c(Cl)c(-c2cc3cnc(-c4cccc(N5CCOCC5)c4)nc3n3ccnc23)c1Cl [Synthesis Example 80, 4-(3-(6-(2,6-dichloro-3,5-dimethoxyphenyl)imidazo[1′,2′:1,6]pyrido[2,3-d]pyrimidin-2-yl)phenyl)morpholine] | > 500 nM |
| C=CC(=O)Nc1cc(N2CCC(OC)C2)ccc1Nc1ncc2cc(-c3c(Cl)c(OC)cc(OC)c3Cl)c3nccn3c2n1 (centres unmarked) [compound 41] | < 50 nM |
| C=CC(=O)Nc1cc(OC2CCN(CC)CC2)ccc1Nc1ncc2cc(-c3c(Cl)c(OC)cc(OC)c3Cl)c3nccn3c2n1 [compound 56] | < 50 nM |
| C=CC(=O)NC1CCCCC1Nc1ncc2cc(-c3c(Cl)c(OC)cc(OC)c3Cl)c3nccn3c2n1 (centres unmarked) [compound 2] | 50 to 500 nM |
| C=CC(=O)Nc1cc(Cl)ccc1Nc1ncc2cc(-c3c(Cl)c(OC)cc(OC)c3Cl)c3nccn3c2n1 [compound 15] | 50 to 500 nM |
| C=CC(=O)Nc1cc(O[C@@H]2CCOC2)c(F)cc1Nc1ncc2cc(-c3c(Cl)c(OC)cc(OC)c3Cl)c3nccn3c2n1 [compound 59] | < 50 nM |
| C=CC(=O)Nc1ccccc1Nc1ncc2cc(-c3c(Cl)c(OC)cc(OC)c3Cl)c3nccn3c2n1 [Synthesis Example 6, N-(2-((6-(2,6-dichloro-3,5-dimethoxyphenyl)imidazo[1′,2′:1,6]pyrido[2,3-d]pyrimidin-2-yl)amino)phenyl)acrylamide] | < 50 nM |
| C=CC(=O)Nc1cc(N2CCN(C(=O)C3CC3)CC2)ccc1Nc1ncc2cc(-c3c(Cl)c(OC)cc(OC)c3Cl)c3nccn3c2n1 [compound 42] | < 50 nM |
| COc1cc(OC)c(Cl)c(-c2cc3cnc(-c4cncc(N5CCOCC5)c4)nc3n3ccnc23)c1Cl [compound 81] | > 500 nM |
| C=CC(=O)Nc1cc(N2CCOCC2)cnc1Nc1ncc2cc(-c3c(Cl)c(OC)cc(OC)c3Cl)c3nccn3c2n1 [compound 70] | 50 to 500 nM |

| Compound | IC50 |
| --- | --- |
| C=CC(=O)Nc1cc(C(C)C)ccc1Nc1ncc2cc(-c3c(Cl)c(OC)cc(OC)c3Cl)c3nccn3c2n1 [compound 22] | 50 to 500 nM |
| C=CC(=O)Nc1cc(N2CC[C@H](OC)C2)ccc1Nc1ncc2cc(-c3c(Cl)c(OC)cc(OC)c3Cl)c3nccn3c2n1 [compound 44] | < 50 nM |
| C=CC(=O)Nc1cc(C2CC2)ccc1Nc1ncc2cc(-c3c(Cl)c(OC)cc(OC)c3Cl)c3nccn3c2n1 [compound 21] | 50 to 500 nM |
| C=CC(=O)Nc1cc(N2CCC[C@H]2COC)ccc1Nc1ncc2cc(-c3c(Cl)c(OC)cc(OC)c3Cl)c3nccn3c2n1 [compound 50] | < 50 nM |
| C=CC(=O)Nc1cc(N2CCCC2)ccc1Nc1ncc2cc(-c3c(Cl)c(OC)cc(OC)c3Cl)c3nccn3c2n1 [compound 33] | 50 to 500 nM |
| C=CC(=O)Nc1cc(N2CCOCC2)cnc1Nc1cc2c(cn1)cc(-c1c(Cl)c(OC)cc(OC)c1Cl)c1nccn12 [compound 86] | < 50 nM |
| C=CC(=O)Nc1ccccc1Nc1ncc2cc(-c3c(F)c(OC)cc(OC)c3F)c3nccn3c2n1 [compound 75] | < 50 nM |
| C=CC(=O)Nc1cccc(C)c1Nc1ncc2cc(-c3cc(OC)cc(OC)c3)c3nccn3c2n1 [compound 8] | > 500 nM |
| C=CC(=O)Nc1cc(OC(C)C)ccc1Nc1ncc2cc(-c3c(Cl)c(OC)cc(OC)c3Cl)c3nccn3c2n1 [compound 28] | < 50 nM |
| C=CC(=O)Nc1cc(C#N)ccc1Nc1ncc2cc(-c3c(Cl)c(OC)cc(OC)c3Cl)c3nccn3c2n1 [compound 17] | 50 to 500 nM |
| C=CC(=O)NC1COCC1Nc1ncc2cc(-c3c(Cl)c(OC)cc(OC)c3Cl)c3nccn3c2n1 (centres unmarked) [compound 3] | 50 to 500 nM |
| C=CC(=O)Nc1cccc(Nc2ncc3cc(-c4c(Cl)c(OC)cc(OC)c4Cl)c4nccn4c3n2)c1 [compound 7] | < 50 nM |
| C=CC(=O)Nc1cc(OCCN(C)C)ccc1Nc1ncc2cc(-c3c(Cl)c(OC)cc(OC)c3Cl)c3nccn3c2n1 [compound 30] | < 50 nM |
| C=CC(=O)Nc1cc(F)cc(C)c1Nc1ncc2cc(-c3c(Cl)c(OC)cc(OC)c3Cl)c3nccn3c2n1 [compound 64] | > 500 nM |
| C=CC(=O)Nc1cn(C)nc1Nc1cc2c(cn1)cc(-c1c(Cl)c(OC)cc(OC)c1Cl)c1nccn12 [compound 87] | < 50 nM |
| C=CC(=O)Nc1cc(C)ccc1Nc1ncc2cc(-c3c(Cl)c(OC)cc(OC)c3Cl)c3nccn3c2n1 [compound 19] | < 50 nM |
| C=CC(=O)Nc1cc(N2CCOCC2)cc(F)c1Nc1ncc2cc(-c3c(Cl)c(OC)cc(OC)c3Cl)c3nccn3c2n1 [compound 67] | 50 to 500 nM |
| COc1cc(OC)c(Cl)c(-c2cc3cnc(Nc4ccc(N5CCOCC5)cc4NC(=O)/C=C\Cl)nc3n3ccnc23)c1Cl [compound 47] | < 50 nM |
| C#Cc1ccc(Nc2ncc3cc(-c4c(Cl)c(OC)cc(OC)c4Cl)c4nccn4c3n2)c(NC(=O)C=C)c1 [compound 16] | 50 to 500 nM |

| Compound | IC50 |
| --- | --- |
| C=CC(=O)Nc1cc(OC2CCN(CC(F)(F)F)CC2)ccc1Nc1ncc2cc(-c3c(Cl)c(OC)cc(OC)c3Cl)c3nccn3c2n1 [compound 55] | 50 to 500 nM |
| C=CC(=O)Nc1cc(O[C@@H]2CCOC2)c(C)cc1Nc1ncc2cc(-c3c(Cl)c(OC)cc(OC)c3Cl)c3nccn3c2n1 [compound 60] | 50 to 500 nM |
| C=CC(=O)Nc1cc(N2CCN(CC)CC2)cc(F)c1Nc1ncc2cc(-c3c(Cl)c(OC)cc(OC)c3Cl)c3nccn3c2n1 [compound 66] | > 500 nM |
| C=CC(=O)Nc1ccc(F)cc1Nc1ncc2cc(-c3c(Cl)c(OC)cc(OC)c3Cl)c3nccn3c2n1 [compound 12] | 50 to 500 nM |
| C=CC(=O)Nc1cc(N2CCN(CCOC)CC2)ccc1Nc1ncc2cc(-c3c(Cl)c(OC)cc(OC)c3Cl)c3nccn3c2n1 [compound 46] | < 50 nM |
| C=CC(=O)Nc1cc(-c2ncc3cc(-c4c(Cl)c(OC)cc(OC)c4Cl)c4nccn4c3n2)cc(N2CCOCC2)c1 [compound 82] | > 500 nM |
| C=CC(=O)Nc1cn(C)nc1Nc1ncc2cc(-c3c(Cl)c(OC)cc(OC)c3Cl)c3nccn3c2n1 [compound 71] | 50 to 500 nM |
| C=CC(=O)Nc1cc(OC2CCN(C)CC2)c(F)cc1Nc1ncc2cc(-c3c(Cl)c(OC)cc(OC)c3Cl)c3nccn3c2n1 [compound 62] | < 50 nM |
| C=CC(=O)Nc1cc(N2CCN(C3CC3)CC2)ccc1Nc1ncc2cc(-c3c(Cl)c(OC)cc(OC)c3Cl)c3nccn3c2n1 [compound 51] | 50 to 500 nM |
| C=CC(=O)Nc1cccnc1Nc1ncc2cc(-c3c(Cl)c(OC)cc(OC)c3Cl)c3nccn3c2n1 [compound 69] | 50 to 500 nM |
| C=CC(=O)Nc1cc(N2CCOC(C)C2)ccc1Nc1ncc2cc(-c3c(Cl)c(OC)cc(OC)c3Cl)c3nccn3c2n1 (centres unmarked) [compound 49] | < 50 nM |
| C=CC(=O)Nc1cc2c(cc1Nc1ncc3cc(-c4c(Cl)c(OC)cc(OC)c4Cl)c4nccn4c3n1)CCC2 [compound 57] | 50 to 500 nM |
| C=CC(=O)Nc1cccc(Cl)c1Nc1ncc2cc(-c3c(F)c(OC)cc(OC)c3F)c3nccn3c2n1 [compound 79] | 50 to 500 nM |
| C=CC(=O)N[C@H]1CCOC[C@H]1Nc1ncc2cc(-c3c(F)c(OC)cc(OC)c3F)c3nccn3c2n1 [compound 5] | 50 to 500 nM |
| C=CC(=O)Nc1cc(OC)ccc1Nc1ncc2cc(-c3c(Cl)c(OC)cc(OC)c3Cl)c3nccn3c2n1 [compound 26] | < 50 nM |
| C=CC(=O)Nc1cc(N2CC(O)C2)ccc1Nc1ncc2cc(-c3c(Cl)c(OC)cc(OC)c3Cl)c3nccn3c2n1 [compound 45] | < 50 nM |
| C=CC(=O)Nc1cc(C2CCN(C)CC2)ccc1Nc1ncc2cc(-c3c(Cl)c(OC)cc(OC)c3Cl)c3nccn3c2n1 [compound 23] | < 50 nM |
| C=CC(=O)Nc1ccc(N2CCN(CC)CC2)cc1Nc1ncc2cc(-c3c(Cl)c(OC)cc(OC)c3Cl)c3nccn3c2n1 [compound 13] | < 50 nM |
